Laboratory results as given in PMC11301756, “The crystal structure of Shethna protein II (FeSII) from Azotobacter vinelandii suggests a domain swap” (Acta Crystallographica Section D: Structural Biology, 2024).

T1: FeSII (Shethna protein II) (Azotobacter vinelandii, UniProt Q44501)
T1 construct: synthetic gene in pRSET-A, no tag, expressed in E. coli KRX; about 13 kDa; dimer in solution; prepared aerobically (oxidized)
T1 sequence (Q44501 2-122 limits assumed): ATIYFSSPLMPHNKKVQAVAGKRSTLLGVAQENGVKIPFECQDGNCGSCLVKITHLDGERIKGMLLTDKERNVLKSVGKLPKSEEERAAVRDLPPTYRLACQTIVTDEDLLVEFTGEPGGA

B1: Shethna protein II (FeSII) from Azotobacter vinelandii (natural protein, UniProt Q44501 1-122, looked up)
chain: MATIYFSSPLMPHNKKVQAVAGKRSTLLGVAQENGVKIPFECQDGNCGSCLVKITHLDGERIKGMLLTDKERNVLKSVGKLPKSEEERAAVRDLPPTYRLACQTIVTDEDLLVEFTGEPGGA
notes: FeSII (Shethna protein II), adrenodoxin-type 2Fe-2S ferredoxin of Azotobacter vinelandii, locus AVIN_39700; synthetic gene in pRSET-A with no tag, amplified with primers from the start codon (ATGGCGACGATCTATTTCAGCAGC) to the stop codons; Carries a 2Fe-2S cluster; prepared aerobically (oxidized); Five copies in the asymmetric unit of the crystal; also called FeSII protein; source: E. coli …

Experiments:
[1] = molecular target: T1, FeSII (Shethna protein II); experiment: X-ray crystal structure (Fe-SAD); format: binding; settings: intrinsic cluster, protein prepared and crystallized aerobically (oxidized); pH 8.0; five copies in asymmetric unit, one closed and four open (domain-swapped)
[2] = molecular target: the molecule itself; experiment: crystal structure; FeSII alone, hanging-drop vapour diffusion, 0.1 M HEPES pH 8.0, 0.2 M sodium citrate, 24% PEG 3350, 2% 1-butanol, 40 mg/ml FeSII; P2(1)2(1)2, 1.65 Å, Fe-SAD; dimers between chains and crystallographic symmetry mates

Molecule	X-ray crystal structure (Fe-SAD), 1.65 A [1]	binding result [2]
[S]1[Fe][S][Fe]1 [2Fe–2S cluster]	In chain E (salmon) in the crystal, the lid helix from chain E covers the iron–sulfur cluster	
B1		binds
